From patent US8735445B2, “Inhibitors of 15-hydroxyprostaglandin dehydrogenase for stimulating pigmentation of the skin or skin appendages” (L'Oreal, priority 2003, dated 2014)
Like-named read-outs stand apart in the source and are kept apart here.

What was measured:
melanocyte line MeWo = experiment: Protection of PGF2α in melanocyte line MeWo; type: cell-based; conditions: 4 hours, MeWo melanocytes
Description: An ampoule of Mewo melanocytes (American type cell collection, HTB-65) is amplified (75 cm^2 flask, Costar), in DMEM medium (Gibco)+10% fetal calf serum+2 mM of L-glutamine+1% of antibiotics (Gibco). After confluence, these cells (48 hours to 72 hours) are resuspended in this same culture medium, after the action of trypsin (according to a procedure conventionally used in cell culture), in a proportion of 600 000 cells per ml.
200 μl of this suspension are introduced into n times 6 wells (n being the total number of assays, i.e., x molecules at 2 concentrations) of a 96-well plate (Costar). The plate is placed in an incubator at 37° C. under 5% CO2.
Preparation, in DMSO of the 1000× stock solutions of the active agents to be evaluated (i.e., 5 and 25 mM).
Removal of the supernatants from the cultures previously prepared (96-well plate), and rinsing with 100 μl/well of DMEM medium+additives (see above description) preheated to 37° C.
Introduction of 100 μl/well of DMEM medium (+additives) containing 0.1 μl of DMSO (control) or 0.1 μl of the stock solution of the active agent to be evaluated (there are 6 assay wells per molecule and per concentration).
Practically 1 ml of solution is prepared for each of the active agents (and per concentration) to be tested, therefore 1 ml of medium+1 μl of DMSO (control) or of 1000× stock solution.
The plate is again placed in an incubator at 37° C. under 5% CO2 for 4 hours, and then a PGF2α assay is carried out on 50 μl of each of the supernatants (of the various assays) by means of an immunoenzymatic kit (according to the supplier's recommendations (PGF2α, EIA kit, ref. 516011, Cayman)).
Results (as % of the amount of PGF2α measured under the control conditions): […]

15-PGDH = target: T1, 15-PGDH (Homo sapiens, UniProt P15428); experiment: 15-PGDH test (spectrophotometric, NADH at 340 nm, PGE2 substrate); type: biochemical; conditions: Example I-5
T1 construct: GST (from vector pGEX-4T3); made in house; host or cells: E. coli BL21 DE3plys
T1 sequence (P15428 1-266): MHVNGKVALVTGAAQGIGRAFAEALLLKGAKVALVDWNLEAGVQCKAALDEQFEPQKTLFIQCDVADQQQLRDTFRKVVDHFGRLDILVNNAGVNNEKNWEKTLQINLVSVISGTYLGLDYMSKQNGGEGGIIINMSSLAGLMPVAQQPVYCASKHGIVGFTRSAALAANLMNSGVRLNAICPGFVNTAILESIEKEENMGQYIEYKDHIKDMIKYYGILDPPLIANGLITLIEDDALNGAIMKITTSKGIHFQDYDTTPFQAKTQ
Description: The enzyme obtained is at a concentration of 0.3 mg/ml and is blocked at −80° C. This suspension is thawed and stored in ice.
A 100 mM Tris buffer, pH—7.4, containing 0.1 mM of dithiothreitol (D5545, Sigma-Aldrich, L'isle D'Abeau Chesne, BP 701, 38297, Saint Quentin Fallavier), 1.5 mM of 13-NAD (N6522, Sigma-Aldrich, L'isle D'Abeau Chesne, BP 701, 38297, Saint Quentin Fallavier) and 50 μM of prostaglandin E2 (P4172, Sigma-Aldrich, L'isle D'Abeau Chesne, BP 701, 38297, Saint Quentin Fallavier) is prepared.
0.965 ml of this buffer (brought to 37° C. beforehand) is placed in the cuvette of a spectrophotomer (Perkin-Elmer, Lambda 2) thermostated at 37° C., the measuring wavelength of which is set at 340 nm. 0.035 ml of enzyme suspension at 37° C. is placed in the cuvette concomitantly with the recording (increase in optical density at 340 nm).
The maximum reaction rate is recorded.
The assay values (molecules) are compared with the control value (without molecule), and the results are expressed as % of the control value.
The assay is carried out as described in example 4a.
The methodology is that described in example 1-5.

PGF synthase (PGFS) = target: T2, PGF synthase (PGFS) (Homo sapiens, UniProt P42330); experiment: Test on PGFS (PGF synthase; phenanthrenequinone/NADPH, 340 nm); type: biochemical
T2 sequence (P42330 1-323): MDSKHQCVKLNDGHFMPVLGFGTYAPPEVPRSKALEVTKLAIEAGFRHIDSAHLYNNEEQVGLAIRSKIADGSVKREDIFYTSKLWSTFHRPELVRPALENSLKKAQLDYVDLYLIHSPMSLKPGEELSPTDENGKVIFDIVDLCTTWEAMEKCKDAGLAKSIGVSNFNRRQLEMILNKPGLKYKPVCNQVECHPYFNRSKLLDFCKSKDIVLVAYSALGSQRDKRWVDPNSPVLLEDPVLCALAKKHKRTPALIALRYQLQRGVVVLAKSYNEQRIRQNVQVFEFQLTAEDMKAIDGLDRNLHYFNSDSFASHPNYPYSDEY
Description: The PGF synthase enzyme is obtained as described in FR-A-02/05067, at a concentration of 0.5 mg/ml, in suspension in an appropriate medium, and is blocked at −80° C. For the needs of the test, this suspension is thawed and stored in ice.
Moreover, a 100 mM Tris buffer, pH=6.5, containing 20 μM of 9.10-phenanthrenequinone* (P2896, Sigma-Aldrich, L′ isle D'Abeau Chesne, BP 701, 38297, Saint Quentin Fallavier) and 100 μM of β-NAPDH(N1630, Sigma-Aldrich, L'isle D'Abeau Chesne, BP 701, 38297, Saint Quentin Fallavier), is prepared in a brown bottle (exclusion of light).
*A stock solution having a titer of 1 mM is prepared in absolute ethanol, brought to 40° C.; the flask is placed in an ultrasound tank so as to facilitate solubilization of the product.
0.950 ml of this buffer (brought beforehand to 37° C.) is introduced into the cuvette of a spectrophotometer (Perkin-Elmer, Lambda 2) thermostatically controlled at 37° C., the measuring wavelength of which is set at 340 nm. 0.05 ml of enzymatic suspension at 37° C. is introduced into the cuvette concomitantly with the recording (corresponding to a decrease in optical density at 340 nm). The maximum reaction rate is recorded. […]

SMILES | % of the amount of PGF2α measured under the control conditions (melanocyte line MeWo; 5 μM) | % of the amount of PGF2α measured under the control conditions (melanocyte line MeWo; 25 μM) | other results
COC(=O)c1cc(/N=N/c2ccc(O)c(CC(=O)O)c2)cc(C(=O)OC)c1 [PhCL28A, reference compound] | +43% | +147% | 
O=C1NC(=O)C(=Cc2ccc(-c3ccc(C(=O)O)cc3)o2)S1 [Compound 1 of example I, 4-{5-[(2,4-dioxo-1,3-thiazolidin-5-ylidene)methyl]-2-furyl}benzoic acid] |  |  | IC50fs/IC50dh ratio (15-PGDH; selectivity for 15-PGDH with respect to PGFS): greater than 13
O=C1NC(=O)/C(=C/c2ccc(-c3ccc(C(=O)O)cc3)o2)S1 [Compound 1, 4-{5-[(2,4-dioxo-1,3-thiazolidin-5-ylidene)methyl]-2-furyl}benzoic acid] |  |  | IC50 (PGF synthase (PGFS); Example I-5, read-out: Inhibition of PGFS IC50fs): 4 µM; IC50 (15-PGDH; read-out: Inhibition 15-PGDH IC50dh): 0.3 µM
O=C1NC(=O)/C(=C/c2ccc(-c3ccc(C(=O)O)cc3)o2)S1 [Compound 1a of example I] | +67% | +51% | 
COc1ccccc1/C=C(\C#N)c1nn(-c2ccccc2)c(N)c1C#N [Compound 9 of example II] |  |  | IC50 (PGF synthase (PGFS); Example II-2, read-out: Inhibition of PGF synthase IC50fs): > 50 µM
